Values quoted from earlier work, collected in US9061061B2, “Method of treating dysglycemia and glucose excursions” (ORX PHARMACEUTICAL CORPORATION, priority 2008, dated 2015).

Details: single 850 mg tablet

lower peak plasma concentration (Cmax) with food compared to fasting: ~40%
prolongation of time to peak plasma concentration (Tmax) with food: 35 min
Compound: CN(C)C(=N)N=C(N)N [metformin]
